Laboratory results: the supplement of paper PMC10307832

Assays:
Test in all cases: relative viability (nuclei count vs DMSO), 5 days (fraction); higher = more cells survive
[1] = compound: COc1cc2nc(N3CCCN(C)CC3)nc(NC3CCN(Cc4ccccc4)CC3)c2cc1OC + NC(=O)Nc1cc(-c2cccc(F)c2)sc1C(=O)N[C@H]1CCCNC1 [AZD7762] (partner 0.2 µM)
Outline: (§1)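 After 5 days of treatment, lung cancer cells in 1536-well plates were fixed and stained in a single step (final 0.05% Triton X-100, 1% formaldehyde, 1 ug/ml Hoechst) and their nuclei counted on 4× images. Treatment had been applied by pin tool the day after seeding as one drug alone or as a fixed anchor-drug dose with five library-drug doses (not always all listed) in √10 steps. Relative viability is the nuclei count of treated wells divided by that of vehicle wells, and values are medians of duplicate plates.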

[2] = compound: COc1cc2nc(N3CCCN(C)CC3)nc(NC3CCN(Cc4ccccc4)CC3)c2cc1OC + CS(=O)(=O)N1CCN(Cc2cc3nc(-c4cccc5[nH]ncc45)nc(N4CCOCC4)c3s2)CC1 [Pictilisib] (partner 1 µM)
Outline: as §1

AZD6482 + Phenformin = compound: Cc1cc([C@@H](C)Nc2ccccc2C(=O)O)c2nc(N3CCOCC3)cc(=O)n2c1 [AZD6482] + N=C(N)NC(=N)NCCc1ccccc1 [Phenformin] (partner 250 µM)
Outline: as §1

[3] = compound: COc1cc2nc(N3CCCN(C)CC3)nc(NC3CCN(Cc4ccccc4)CC3)c2cc1OC + CC(=O)Nc1cccc(-n2c(=O)n(C3CC3)c(=O)c3c(Nc4ccc(I)cc4F)n(C)c(=O)c(C)c32)c1 [Trametinib] (partner 0.02 µM)
Outline: as §1

Row | Cell Line | relative viability ([1]; first compound 0.2 µM) | relative viability ([1]; first compound 0.6325 µM) | relative viability ([1]; first compound 2 µM) | relative viability ([1]; first compound 6.325 µM) | relative viability ([2]; first compound 0.2 µM) | relative viability ([2]; first compound 0.6325 µM) | relative viability ([2]; first compound 2 µM) | relative viability ([2]; first compound 6.325 µM) | relative viability (AZD6482 + Phenformin; first compound 0.08 µM) | relative viability (AZD6482 + Phenformin; first compound 0.253 µM) | relative viability (AZD6482 + Phenformin; first compound 0.8 µM) | relative viability (AZD6482 + Phenformin; first compound 2.53 µM) | relative viability (AZD6482 + Phenformin; first compound 8 µM) | relative viability ([3]; first compound 0.2 µM) | relative viability ([3]; first compound 0.6325 µM) | relative viability ([3]; first compound 2 µM) | relative viability ([3]; first compound 6.325 µM)
1 | NCI-H1975 | 0.78 | 0.813 | 0.805 | 0.775 | 0.276 | 0.313 | 0.332 | 0.248 | 0.373 | 0.383 | 0.401 | 0.283 | 0.232 | 0.369 | 0.41 | 0.346 | 0.322
2 | CAL-12T | 0.725 | 0.615 | 0.614 | 0.595 | 0.402 | 0.53 | 0.388 | 0.34 | 0.615 | 0.517 | 0.568 | 0.336 | 0.418 | 0.324 | 0.329 | 0.302 | 0.266
3 | NCI-H1623 |  |  |  |  |  |  |  |  | 0.577 | 0.579 | 0.531 | 0.502 | 0.534 |  |  |  | 
4 | HCC-44 | 1.04 | 0.995 | 0.994 | 1.01 | 0.616 | 0.693 | 0.563 | 0.605 | 0.255 | 0.14 | 0.189 | 0.169 | 0.167 | 1.04 | 1.13 | 1.1 | 1.08
5 | EKVX | 0.795 | 0.713 | 0.815 | 0.657 | 0.466 | 0.46 | 0.357 | 0.4 | 0.212 | 0.22 | 0.233 | 0.171 | 0.208 | 0.316 | 0.393 | 0.319 | 0.278
6 | NCI-H1651 | 0.446 | 0.373 | 0.452 | 0.502 | 0.638 | 0.591 | 0.73 | 0.462 | 0.281 | 0.296 | 0.33 | 0.253 | 0.242 | 0.828 | 0.815 | 0.888 | 0.848
7 | NCI-H1944 | 0.534 | 0.476 | 0.487 | 0.51 | 0.342 | 0.365 |  | 0.336 | 0.216 | 0.193 | 0.19 | 0.154 | 0.153 | 0.437 | 0.423 | 0.379 | 0.414
8 | NCI-H1703 | 0.118 |  | 0.125 | 0.184 | 0.25 | 0.225 | 0.266 | 0.16 |  |  |  |  |  |  |  |  | 
9 | Calu-6 |  |  |  |  | 0.924 | 0.978 | 0.953 | 0.743 |  |  |  |  |  |  |  |  | 
10 | EBC-1 |  |  |  |  | 0.337 | 0.392 | 0.248 | 0.132 |  |  |  |  |  |  |  |  | 
11 | SW 1573 |  |  |  |  | 0.478 | 0.539 | 0.537 | 0.325 | 0.301 | 0.296 | 0.383 | 0.19 | 0.221 | 0.446 | 0.518 | 0.572 | 0.368
12 | A-427 | 0.785 | 0.681 | 0.756 | 0.775 | 0.755 | 0.728 | 0.679 | 0.675 | 0.345 | 0.232 | 0.319 |  | 0.225 | 0.756 | 0.677 | 0.739 | 0.674
13 | NCI-H2347 | 0.697 | 0.714 | 0.839 | 0.76 | 0.702 | 0.686 | 0.574 | 0.549 | 0.198 | 0.277 | 0.235 | 0.243 | 0.221 | 0.275 | 0.299 | 0.271 | 0.377
14 | NCI-H1355 | 0.738 | 0.693 | 0.941 | 0.661 | 0.434 | 0.442 | 0.472 | 0.476 | 0.41 | 0.386 | 0.414 | 0.308 | 0.329 | 0.419 | 0.458 | 0.433 | 0.385
15 | NCI-H358 | 0.518 | 0.681 | 0.48 | 0.498 | 0.368 | 0.422 | 0.348 | 0.269 | 0.305 | 0.323 | 0.317 | 0.163 | 0.233 | 0.132 | 0.16 | 0.121 | 0.126
16 | PC-3 [JPC-3] | 0.692 | 1.06 | 0.874 | 0.685 | 0.721 | 0.763 | 0.6 | 0.805 | 0.418 | 0.492 | 0.508 | 0.406 | 0.391 | 0.641 | 0.761 | 0.745 | 0.507
17 | NCI-H2228 |  |  |  |  | 0.385 | 0.256 | 0.405 | 0.175 |  | 0.315 | 0.324 | 0.309 | 0.284 | 0.561 | 0.565 | 0.403 | 0.395
18 | HOP-62 | 0.485 | 0.425 | 0.726 | 0.521 | 0.586 | 0.688 | 0.555 | 0.496 | 0.679 | 0.733 | 0.745 | 0.577 | 0.707 | 0.396 | 0.434 | 0.459 | 0.361
19 | HARA | 0.306 | 0.337 | 0.453 | 0.266 | 0.395 | 0.53 | 0.453 | 0.308 | 0.376 | 0.395 | 0.486 | 0.399 | 0.168 | 0.686 | 0.916 | 0.522 | 0.746
20 | NCI-H838 | 0.974 | 0.908 | 1.01 | 0.892 | 0.477 | 0.598 | 0.479 | 0.424 | 0.459 | 0.519 | 0.497 | 0.263 | 0.397 | 0.536 | 0.556 | 0.532 | 0.391
21 | NCI-H1755 | 0.501 | 0.386 | 0.461 | 0.477 | 0.423 | 0.425 | 0.377 | 0.317 | 0.525 | 0.576 | 0.542 | 0.427 | 0.41 | 0.797 | 0.75 | 0.713 | 0.746
22 | HCC-78 | 0.588 | 0.675 | 0.67 | 0.717 | 0.206 | 0.212 | 0.207 | 0.188 | 0.506 | 0.421 | 0.562 | 0.309 | 0.31 | 0.734 | 0.695 | 0.723 | 0.685
